Results: the supplement of paper PMC11208160

Assay: recombinant UMI read abundance after kanamycin selection (control-corrected) (log10(CPM+1)); higher = more efficient recombination; extreme values may be limits of the assay; sequences stand for … in AGTGCAGAGAAAATCGGCCAGTTTTCTCTGCCTGCAGTCCGCATGCCGTGGGACCCCTTGGGTTCTAACCTGTTGCCTAGATTTATGCAGCGGACTGCCTTTCTCCCAAAGTGATAAACCGG…AGGTTGGTTTCACT; site = the 11-nt donor
Outline: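 Counts of recombinant UMIs were reported as log10(CPM+1). Before that, they were converted to CPM, averaged over replicates and scaled using control-derived factors. They came from PCR across the donor–target junction after Escherichia coli carrying the pair library and target plasmid was plated on IPTG (0.07 mM) plus kanamycin, or unselected, in two replicates each.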
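Further: IS621 bridge recombinase in Escherichia coli cells against a fixed T5 target plasmid.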

In order of rising “recombinant UMI read abundance (log10)” value:
1. GGATAGACATGGACCGGTTTTCCCGGTAATCCGTATTTGAC (site GGATAGACTGA)  0
2. GGATAGACATGGACCGGTTTTCCCGGTAATCCGTATTTGCC (site GGAAAGACTGG)  0
3. GGATAGACATGGACCGGTTTTCCCGGTAATCCGTATTTGCC (site GGAGAGACTGG)  0
4. GGATAGACATGGACCGGTTTTCCCGGTAATCCGTATTTGCC (site GGATAGACTGC)  0
5. GGATAGACATGGACCGGTTTTCCCGGTAATCCGTATTTGCC (site GGATCGACTGG)  0
6. GGATAGACATGGACCGGTTTTCCCGGTAATCCGTATTTGCC (site GGATGGACTGG)  0
7. GGATAGACATGGACCGGTTTTCCCGGTAATCCGTATTTGCC (site GGATTGACTGG)  0
8. GGATAGACATGGACCGGTTTTCCCGGTAATCCGTATTTGGC (site GGATAGACTGG)  0
9. GGCAAACCATGGACCGGTTTTCCCGGTAATCCGTATTTGGT (site GACAAACCTAC)  0
10. GGCAAACCATGGACCGGTTTTCCCGGTAATCCGTATTTGGT (site GCCAAACCTAC)  0
11. GGCAAACCATGGACCGGTTTTCCCGGTAATCCGTATTTGGT (site GGCAAACCTAC)  0
12. GGCAAACCATGGACCGGTTTTCCCGGTAATCCGTATTTGGT (site GTCAAACCTAC)  0
13. GGCAACCCATGGACCGGTTTTCCCGGTAATCCGTATTTGAA (site GGCAAACCTTT)  0
14. GGCAACCCATGGACCGGTTTTCCCGGTAATCCGTATTTGAA (site GGCAAGCCTTT)  0
15. GGCAATCCATGGACCGGTTTTCCCGGTAATCCGTATTTGAT (site GGCAATCCTGT)  0
16. GGCAATCCATGGACCGGTTTTCCCGGTAATCCGTATTTGCA (site GGCAATCCTTG)  0
17. GGCAACCCATGGACCGGTTTTCCCGGTAATCCGTATTTGAA (site GGCAATCCTTT)  0.00284
18. GGCAATCCATGGACCGGTTTTCCCGGTAATCCGTATTTGAT (site GGCAATCCTTT)  0.00349
19. GGCAATCCATGGACCGGTTTTCCCGGTAATCCGTATTTGAT (site GGCAATCCTCT)  0.0105
20. GGCAATCCATGGACCGGTTTTCCCGGTAATCCGTATTTGCA (site GGCAATCCTTC)  0.0145
21. GGATTGGCATGGACCGGTTTTCCCGGTAATCCGTATTTGGT (site GGAGTGGCTAC)  0.0175
22. GGCAACCCATGGACCGGTTTTCCCGGTAATCCGTATTTGAA (site GGCAACCCTTT)  0.0234
23. GGCAATCCATGGACCGGTTTTCCCGGTAATCCGTATTTGAT (site GGCAATCCTAT)  0.192
24. GGCAATCCATGGACCGGTTTTCCCGGTAATCCGTATTTGCA (site GGCAATCCTTA)  0.227
25. GGATAGACATGGACCGGTTTTCCCGGTAATCCGTATTTGCC (site GGGTAGACTGG)  0.24
26. GGATTGGCATGGACCGGTTTTCCCGGTAATCCGTATTTGGT (site GGAATGGCTAC)  0.341
27. GGATCGTCATGGACCGGTTTTCCCGGTAATCCGTATTTGCT (site CGATCATCTAG)  0.402
28. GGATTGGCATGGACCGGTTTTCCCGGTAATCCGTATTTGGT (site GGACTGGCTAC)  0.611
29. GGATAGACATGGACCGGTTTTCCCGGTAATCCGTATTTGCC (site CGATAGACTGG)  0.635
30. GGATCGACATGGACCGGTTTTCCCGGTAATCCGTATTTGTA (site GGATCGACTTA)  0.775
31. GGATAGACATGGACCGGTTTTCCCGGTAATCCGTATTTGCC (site GGATAGACTCG)  0.799
32. GGATAGACATGGACCGGTTTTCCCGGTAATCCGTATTTGAC (site GGATAGACTGC)  0.822
33. GGATAGACATGGACCGGTTTTCCCGGTAATCCGTATTTGCC (site GGATAGACTAG)  0.852
34. GGATAGACATGGACCGGTTTTCCCGGTAATCCGTATTTGTC (site GGATAGACTGC)  0.855
35. GGATAGACATGGACCGGTTTTCCCGGTAATCCGTATTTGCC (site GGATAGCCTGG)  0.943
36. GGATAGACATGGACCGGTTTTCCCGGTAATCCGTATTTGCC (site GGCTAGACTGG)  1.03
37. GGATAGACATGGACCGGTTTTCCCGGTAATCCGTATTTGCC (site GGTTAGACTGG)  1.09
38. GGATAGACATGGACCGGTTTTCCCGGTAATCCGTATTTGCC (site GGATAGACTGT)  1.32
39. GGATAGACATGGACCGGTTTTCCCGGTAATCCGTATTTGCC (site GGATAGACTGA)  1.38
40. GGATTCACATGGACCGGTTTTCCCGGTAATCCGTATTTGTT (site GGATTCACTAA)  1.44
41. GGATTGGCATGGACCGGTTTTCCCGGTAATCCGTATTTGGT (site GGATTGGCTAC)  1.46
42. GGATAGACATGGACCGGTTTTCCCGGTAATCCGTATTTGCC (site GAATAGACTGG)  1.5
43. GGATAGACATGGACCGGTTTTCCCGGTAATCCGTATTTGCC (site GGATACACTGG)  1.54
44. GGATAGACATGGACCGGTTTTCCCGGTAATCCGTATTTGCC (site GGATAGTCTGG)  1.62
45. GGATAGACATGGACCGGTTTTCCCGGTAATCCGTATTTGGC (site GGATAGACTGA)  1.7
46. GGAGTGTCATGGACCGGTTTTCCCGGTAATCCGTATTTGGT (site GGAGTGTCTAC)  1.71
47. GGATAGACATGGACCGGTTTTCCCGGTAATCCGTATTTGCC (site GGATAGACTTG)  1.75
48. GGATGAACATGGACCGGTTTTCCCGGTAATCCGTATTTGTT (site GGATGAACTAA)  1.78
49. GGATAGACATGGACCGGTTTTCCCGGTAATCCGTATTTGTC (site GGATAGACTGT)  1.81
50. GGATAGACATGGACCGGTTTTCCCGGTAATCCGTATTTGCC (site GTATAGACTGG)  1.89
51. GGATAGACATGGACCGGTTTTCCCGGTAATCCGTATTTGAC (site GGATAGACTGG)  1.9
52. GGATAGACATGGACCGGTTTTCCCGGTAATCCGTATTTGCC (site GGATAGGCTGG)  1.98
53. GGATATACATGGACCGGTTTTCCCGGTAATCCGTATTTGAT (site GGATATACTAT)  2.03
54. GGATAGACATGGACCGGTTTTCCCGGTAATCCGTATTTGCC (site GGATAAACTGG)  2.06
55. GGATAGACATGGACCGGTTTTCCCGGTAATCCGTATTTGCC (site TGATAGACTGG)  2.09
56. GGATAGACATGGACCGGTTTTCCCGGTAATCCGTATTTGCC (site AGATAGACTGG)  2.1
57. GGATAGACATGGACCGGTTTTCCCGGTAATCCGTATTTGTC (site GGATAGACTGG)  2.1
58. GGATAGACATGGACCGGTTTTCCCGGTAATCCGTATTTGCC (site GCATAGACTGG)  2.11
59. GGATCGTCATGGACCGGTTTTCCCGGTAATCCGTATTTGCT (site GGATCGTCTAG)  2.28
60. GGATAGACATGGACCGGTTTTCCCGGTAATCCGTATTTGGC (site GGATAGACTGT)  2.32
61. GGATAGACATGGACCGGTTTTCCCGGTAATCCGTATTTGGC (site GGATAGACTGC)  2.35
62. GGATAGACATGGACCGGTTTTCCCGGTAATCCGTATTTGCC (site GGACAGACTGG)  2.55
63. GGATAGACATGGACCGGTTTTCCCGGTAATCCGTATTTGCC (site GGATAGACTGG)  2.73
64. GGATAGACATGGACCGGTTTTCCCGGTAATCCGTATTTGCC (site GGATATACTGG)  2.8
65. GGATAATCATGGACCGGTTTTCCCGGTAATCCGTATTTGAA (site GGATAATCTTT)  2.84
66. GGATAGACATGGACCGGTTTTCCCGGTAATCCGTATTTGTC (site GGATAGACTGA)  3.09
67. GGATAGTCATGGACCGGTTTTCCCGGTAATCCGTATTTGCT (site GGATAGTCTAG)  3.17
68. GGATAGACATGGACCGGTTTTCCCGGTAATCCGTATTTGAC (site GGATAGACTGT)  3.21
